According to ChEMBL document CHEMBL4270582, “Diterpenoid lead stevioside and its hydrolysis products steviol and isosteviol: Biological activity and structural modification” (Eur J Med Chem, 2018):
In brackets after ≈: the same amount, converted by molar mass.

Key:
Staphylococcus aureus = test: Antibacterial activity against Staphylococcus aureus 209p by serial dilution method; format: functional
Candida albicans = test: Antifungal activity against Candida albicans 855-653 by serial dilution method; format: functional
B16-F10 = test: Antiproliferative activity against mouse B16F10 cells; format: functional, cell-based
HCT-116 [1] = test: Antiproliferative activity against human HCT116 cells after 72 hrs by MTT assay; format: functional, cell-based; settings: HCT-116, 72 h
[2] = test system: Mycobacterium tuberculosis; test: Antimycobacterial activity against Mycobacterium tuberculosis H37Rv after 11 days by serial dilution method; format: functional; settings: 264 h
[3] = test system: Mycobacterium tuberculosis; test: Antimycobacterial activity against Mycobacterium tuberculosis H37Rv after 10 to 12 days by vertical diffusion method; format: functional
Mycobacterium avium = test: Antimycobacterial activity against Mycobacterium avium after 10 to 12 days by vertical diffusion method; format: functional
Mycolicibacter terrae = test: Antimycobacterial activity against Mycobacterium terrae after 10 to 12 days by vertical diffusion method; format: functional
A549 = test: Antiproliferative activity against human A549 cells after 48 hrs by MTT assay; format: functional, cell-based; settings: A549, 48 h
ASPC1 = test: Antiproliferative activity against human AsPC1 cells after 48 hrs by MTT assay; format: functional, cell-based; settings: ASPC1, 48 h
HCT-116 [4] = test: Antiproliferative activity against human HCT116 cells after 48 hrs by MTT assay; format: functional, cell-based; settings: HCT-116, 48 h
HCT-116 [5] = test: Antiproliferative activity against human HCT116 cells by MTT assay; format: functional, cell-based
Huh-7 = test: Antiproliferative activity against human HuH7 cells by MTT assay; format: functional, cell-based
HepG2 [6] = test: Antiproliferative activity against human HepG2 cells by MTT assay; format: functional, cell-based
SW-620 = test: Antiproliferative activity against human SW620 cells by MTT assay; format: functional, cell-based
Bacillus subtilis = test: Antibacterial activity against Bacillus subtilis CMCC (B) 63501 after 6 hrs by two fold serial dilution method; format: functional; settings: CMCC (B) 63501, 6 h
HL-60 [7] = test: Antiproliferative activity against human HL60 cells after 24 hrs by MTT assay; format: functional, cell-based; settings: HL-60, 24 h
HepG2 [8] = test: Antiproliferative activity against human HepG2 cells after 24 hrs by MTT assay; format: functional, cell-based; settings: HepG2, 24 h
NCI-H460 = test: Antiproliferative activity against human H460 cells after 24 hrs by MTT assay; format: functional, cell-based; settings: NCI-H460, 24 h
MRC5 = test: Antiproliferative activity against human MRC5 cells after 24 hrs by MTT assay; format: cell-based; settings: MRC5, 24 h
[9] = test system: Mycobacterium tuberculosis; test: Antimycobacterial activity against Mycobacterium tuberculosis H37Rv after 10 to 12 days by double serial dilution method; format: functional
HL-60 [10] = test: Antiproliferative activity against human HL60 cells after 48 hrs by MTT assay; format: functional, cell-based; settings: HL-60, 48 h
AZ-521 cell line = test: Antiproliferative activity against human AZ-521 cells after 48 hrs by MTT assay; format: functional, cell-based; settings: AZ-521, 48 h
SK-BR-3 = test: Antiproliferative activity against human SKBR3 cells after 48 hrs by MTT assay; format: functional, cell-based; settings: SK-BR-3, 48 h
HepG2 [11] = test: Antiproliferative activity against human HepG2 cells; format: functional, cell-based
HeLa = test: Antiproliferative activity against human HeLa cells after 48 hrs by MTT assay; format: functional, cell-based
[12] = Inhibition of calf thymus DNA polymerase alpha using poly(dA)template/oligo(dT) (12 to 18 residues) primer and dTTP as substrate after 10 mins; set-up: species or system Bos taurus
MCF7 [13] = test: Antiproliferative activity against human MCF7 cells; format: functional, cell-based
MCF7 [14] = test: Antiproliferative activity against human MCF7 cells after 48 hrs by SRB assay; format: functional, cell-based; settings: MCF7, 48 h
Syrian golden hamster [15] = test: Induction of insulin sensitivity in Syrian golden hamster assessed as uplift of glucose uptake in normal condition relative to control; format: functional, Mesocricetus auratus
Syrian golden hamster [16] = test: Induction of insulin sensitivity in Syrian golden hamster assessed as uplift of glucose uptake in insulin-resistance condition relative to control; format: functional, Mesocricetus auratus
Jejunum = test: Downregulation of glucose uptake in Syrian golden hamster jejunum at 1 mM after 60 mins relative to control; format: functional, Mesocricetus auratus

C[C@@]12CC[C@@H]3[C@@](CC[C@H]4[C@@]3(C)CCC[C@@]4(C)C(=O)OCC[N+](C)(C)Cc3ccccc3)(CC1=O)C2.[Br-]
MIC (Staphylococcus aureus): 31.2 µg/mL
MIC (Candida albicans): 31.2 µg/mL

C=C1C(=O)[C@@]2(C)CC[C@@H]3[C@]1(CC[C@H]1[C@@]3(C)CCC[C@@]1(C)C(=O)NCC(=O)OCCCOc1no[n+]([O-])c1S(=O)(=O)c1ccccc1)C2
IC50 (B16-F10): 0.02 µM

CCOC(=O)[C@]1(C)CCC[C@@]2(C)[C@@H]3CC[C@@]4(C)C[C@]3(CC[C@@H]21)[C@H](Cn1cc(COc2ccccc2C=O)nn1)[C@H]4O
IC50 (HCT-116 [1]): 2.98 µM

COC(=O)[C@]1(C)CCC[C@@]2(C)[C@@H]3CC[C@@]4(C)C[C@]3(CC[C@@H]21)C/C4=N\NC(=O)c1ccccn1
MIC [2]: 10 µg/mL (≈ 22.1 µM)

COC(=O)[C@]1(C)CCC[C@@]2(C)[C@@H]3CC[C@@]4(C)C[C@]3(CC[C@@H]21)C/C4=N\NC(=O)c1cccnc1
MIC [2]: 10 µg/mL (≈ 22.1 µM)

C[C@@]12CC[C@@H]3[C@@](CC[C@H]4[C@@]3(C)CCC[C@@]4(C)C(=O)O[C@@H]3O[C@H](C(=O)NN)[C@@H](O)[C@H](O)[C@H]3O)(C/C1=N\N)C2
MIC [3]: 0.7 µg/mL (≈ 1.34 µM)
MIC (Mycobacterium avium): 0.7 µg/mL (≈ 1.34 µM)
MIC (Mycolicibacter terrae): 0.35 µg/mL (≈ 0.67 µM)

C[C@@]12CC[C@@H]3[C@@](CC[C@H]4[C@@]3(C)CCC[C@@]4(C)C(=O)OCc3cn(CCCc4ccccc4)nn3)(CC1=O)C2
IC50 (A549): 9.95 µM
IC50 (ASPC1): 4.79 µM
IC50 (HCT-116 [4]): 6.6 µM

CCOC(=O)[C@]1(C)CCC[C@@]2(C)[C@@H]3CC[C@@]4(C)C[C@]3(CC[C@@H]21)C/C4=N\OC(=O)CCC(=O)OCCOc1no[n+]([O-])c1S(=O)(=O)c1ccccc1
IC50 (HCT-116 [5]): 0.48 µM
IC50 (Huh-7): 2.86 µM
IC50 (HepG2 [6]): 2.95 µM
IC50 (SW-620): 3.02 µM

CCOC(=O)[C@]1(C)CCC[C@@]2(C)[C@@H]3CC[C@@]4(C)C[C@]3(CC[C@@H]21)C/C4=N\OC(=O)CCC(=O)OC(C)CCOc1no[n+]([O-])c1S(=O)(=O)c1ccccc1 (stereo partly specified)
IC50 (HCT-116 [5]): 0.94 µM
IC50 (Huh-7): 1.73 µM
IC50 (HepG2 [6]): 2.42 µM
IC50 (SW-620): 1.15 µM

C=C[C@]12CC[C@H]3[C@@](C)(CCC[C@@]3(C)C(=O)OCC)[C@@H]1CC[C@](C)(/C=N/O)C2
MIC (Bacillus subtilis): 1.56 µg/mL (≈ 4.15 µM)

C=C1C[C@@]23CC[C@H]4[C@@](C)(CCC[C@@]4(C)C(=O)NCCNC(=O)[C@]4(C)CCC[C@@]5(C)[C@@H]6CC[C@]7(O)C[C@@]6(CC[C@@H]54)CC7=C)[C@@H]2CC[C@]1(O)C3
IC50 (HL-60 [7]): 4.3 µM
IC50 (HepG2 [8]): 17.9 µM
IC50 (NCI-H460): 10.7 µM
IC50 (MRC5): 17 µM

C[C@@]12CC[C@@H]3[C@@](CC[C@H]4[C@@]3(C)CCC[C@@]4(C)C(=O)O)(C[C@H]1CC(=O)CCCCCCCCC(=O)C[C@@H]1C[C@]34CC[C@H]5[C@@H](CCC[C@H]5C(=O)O)[C@@H]3CC[C@@]1(C)C4)C2
MIC [9]: 12.5 µg/mL (≈ 16.1 µM)

COP(=O)(OC)C(C)(C)C/C(C)=N/N=C1\C[C@]23CC[C@H]4[C@@](C)(CCC[C@@]4(C)C(=O)N/N=C(\C)CC(C)(C)P(=O)(OC)OC)[C@@H]2CC[C@@]1(C)C3
MIC [2]: 5 µg/mL (≈ 6.88 µM)

C=C1C[C@@]23CC[C@H]4[C@@H](CCC[C@@]4(C)COC(=O)/C=C/C(F)(F)F)[C@@H]2CC[C@]1(O)C3
IC50 (HL-60 [10]): 2.9 µM
IC50 (A549): 4.1 µM
IC50 (AZ-521 cell line): 1.7 µM
IC50 (SK-BR-3): 1.2 µM

CCCCCCCC(=O)CO[C@]1(C)CCC[C@@]2(C)[C@@H]3CC[C@@]4(C)C[C@]3(CC[C@@H]21)CC4=O
IC50 (HepG2 [11]): 2 µM

C[C@@]12CC[C@@H]3[C@@](CC[C@H]4[C@@]3(C)CCC[C@@]4(C)C(=O)NNC(=O)CCCCC(=O)NNC(=O)[C@]3(C)CCC[C@H]4[C@@H]5CC[C@@]6(C)C[C@]5(CC[C@@H]43)CC6=O)(CC1=O)C2
MIC [2]: 5 µg/mL (≈ 6.57 µM)

C[C@@]12CC[C@@H]3[C@@](CC[C@H]4[C@@]3(C)CCC[C@@]4(C)C(=O)OCc3cn(-c4ccccc4)nn3)(CC1=O)C2
IC50 (HeLa): 5.83 µM

C[C@@]12CC[C@@H]3[C@@](CC[C@H]4[C@@]3(C)CCC[C@@]4(C)C(=O)NCCNC(=O)[C@]3(C)CCC[C@@]4(C)[C@@H]5CC[C@@]6(C)C[C@]5(CC[C@@H]43)CC6=O)(CC1=O)C2
IC50 (HL-60 [7]): 4.8 µM
IC50 (HepG2 [8]): 17.4 µM
IC50 (NCI-H460): 14 µM
IC50 (MRC5): 22.6 µM

NNC(=O)c1ccncc1 [ISONIAZID]
MIC [2]: 0.5 µg/mL (≈ 3.65 µM)

C[C@@]12CC[C@@H]3[C@@](CC[C@H]4[C@@]3(C)CCC[C@@]4(C)C(=O)O)(CC1=O)C2 [ISOSTEVIOL]
IC50 [12]: 64 µM
IC50 (MCF7 [13]): 2.18 µg/mL (≈ 6.85 µM)

C=C1C[C@@]23CC[C@H]4[C@@](C)(CCC[C@@]4(C)C(=O)O)[C@@H]2CC[C@]1(O)C3 [STEVIOL]
IC50 (MCF7 [14]): 185 µM

C=C1C[C@@]23CC[C@H]4[C@@](C)(CCC[C@@]4(C)C(=O)O[C@@H]4O[C@H](CO)[C@@H](O)[C@H](O)[C@H]4O)[C@@H]2CC[C@]1(O[C@@H]1O[C@H](CO)[C@@H](O)[C@H](O)[C@H]1O[C@@H]1O[C@H](CO)[C@@H](O)[C@H](O)[C@H]1O)C3 [STEVIOSIDE]
fold change (FC) (Syrian golden hamster [15]): 2.1
fold change (FC) (Syrian golden hamster [16]): 4.4
Activity (Jejunum): 43%

CCN(CC)CCNC(=O)c1c(C)[nH]c(/C=C2\C(=O)Nc3ccc(F)cc32)c1C [SUNITINIB]
IC50 (HepG2 [6]): 7.78 µM
